Measurements reported in patent US10703765B2 (priority 2014, dated 2020).
Where a name gives a salt, the structure may show the parent alone. Read-outs that look alike come from different tables or passages of the source.

Target: human σ1 receptor (Homo sapiens, UniProt Q99720)
Assay: biochemical
Format: binding
Set-up: μ and σ1 dual binding: key to the marks not given beside the values
[1] = read-out: μ and σ1 dual binding
[2] = combined class from Ki-σ1 (human σ1 receptor, A1) and Ki-μ (human μ-opioid receptor, A2) radioligand binding

Sequence of human σ1 receptor (Q99720 whole entry): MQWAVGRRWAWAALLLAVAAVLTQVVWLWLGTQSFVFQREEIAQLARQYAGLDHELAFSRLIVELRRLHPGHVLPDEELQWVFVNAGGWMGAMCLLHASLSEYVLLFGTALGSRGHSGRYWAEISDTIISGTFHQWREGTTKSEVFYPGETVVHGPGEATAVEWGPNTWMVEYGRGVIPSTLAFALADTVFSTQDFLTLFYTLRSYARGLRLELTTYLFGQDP

SMILES | Ki [1] [µM] | other results
CC1OC2(CCN(CCc3ccccc3)CC2)CN(c2cnccc2C(F)(F)F)C1=O (stereo not shown) [Example 214, 2-methyl-9-phenethyl-4-(4-(trifluoromethyl)pyridin-3-yl)-1-oxa-4,9-diazaspiro[5.5]undecan-3-one hydrochloride] | < 0.1 | –
CC1OC2(CCN(CCc3ccccc3)CC2)CN(c2cccnc2C(F)(F)F)C1=O (stereo not shown) [Example 215, 2-methyl-9-phenethyl-4-(2-(trifluoromethyl)pyridin-3-yl)-1-oxa-4,9-diazaspiro[5.5]undecan-3-one hydrochloride] | < 0.5 | –
CC1OC2(CCN(CCc3ccccc3)CC2)CN(c2cncc(F)c2)C1=O (stereo not shown) [Example 216, 4-(5-fluoropyridin-3-yl)-2-methyl-9-phenethyl-1-oxa-4,9-diazaspiro[5.5]undecan-3-one hydrochloride] | < 0.5 | –
CC1OC2(CCN(CCc3ccccc3)CC2)CN(c2cncc(C(F)(F)F)c2)C1=O (stereo not shown) [Example 217, 2-methyl-9-phenethyl-4-(5-(trifluoromethyl)pyridin-3-yl)-1-oxa-4,9-diazaspiro[5.5]undecan-3-one hydrochloride] | < 0.5 | –
CC1OC2(CCN(CCc3ccccc3)CC2)CN(c2ncccc2C(F)(F)F)C1=O (stereo not shown) [Example 218, 2-methyl-9-phenethyl-4-(3-(trifluoromethyl)pyridin-2-yl)-1-oxa-4,9-diazaspiro[5.5]undecan-3-one] | < 0.5 | –
O=C1N(c2cccnc2C(F)(F)F)CC2(CCN(CCc3ccccc3F)CC2)OC12CC2 [Example 219, 8-(2-fluorophenethyl)-12-(2-(trifluoromethyl)pyridin-3-yl)-4-oxa-8,12-diazadispiro[2.1.5.3]tridecan-13-one] | < 0.5 | –
O=C1N(c2ncccc2C(F)(F)F)CC2(CCN(CCc3ccccc3F)CC2)OC12CC2 [Example 220, 8-(2-fluorophenethyl)-12-(3-(trifluoromethyl)pyridin-2-yl)-4-oxa-8,12-diazadispiro[2.1.5.3]tridecan-13-one hydrochloride] | < 0.5 | –
CC1OC2(CCN(CCc3ccccc3F)CC2)CN(c2ncccc2C(F)(F)F)C1=O (stereo not shown) [Example 221, 9-(2-fluorophenethyl)-2-methyl-4-(3-(trifluoromethyl)pyridin-2-yl)-1-oxa-4,9-diazaspiro[5.5]undecan-3-one] | < 0.5 | –
C[C@H]1OC2(CCN(CCc3ccccc3F)CC2)CN(c2ncccc2C(F)(F)F)C1=O [Example 222a, (R)-9-(2-fluorophenethyl)-2-methyl-4-(3-(trifluoromethyl)pyridin-2-yl)-1-oxa-4,9-diazaspiro[5.5]undecan-3-one] | < 0.5 | –
C[C@@H]1OC2(CCN(CCc3ccccc3F)CC2)CN(c2ncccc2C(F)(F)F)C1=O [Example 222b, (S)-9-(2-fluorophenethyl)-2-methyl-4-(3-(trifluoromethyl)pyridin-2-yl)-1-oxa-4,9-diazaspiro[5.5]undecan-3-one] | > 0.5 | –
O=C1N(c2cnccc2C(F)(F)F)CC2(CCN(CCc3ccccc3F)CC2)OC12CC2 [Example 223, 8-(2-fluorophenethyl)-12-(4-(trifluoromethyl)pyridin-3-yl)-4-oxa-8,12-diazadispiro[2.1.5.3]tridecan-13-one hydrochloride] | < 0.1 | –
O=C1N(c2ccccc2F)CC2(CCN(CCc3ccccc3)CC2)OC12CC2 [Example 224, 12-(2-fluorophenyl)-8-phenethyl-4-oxa-8,12-diazadispiro[2.1.5.3]tridecan-13-one] | < 0.1 | –
O=C1N(c2ccccc2)CC2(CCN(CCc3ccccc3)CC2)OC12CC2 [Example 225, 8-phenethyl-12-phenyl-4-oxa-8,12-diazadispiro[2.1.5.3]tridecan-13-one] | < 0.1 | –
CC1OC2(CCN(CCc3cccc(N)c3)CC2)CN(c2ccccc2)C1=O (stereo not shown) [Example 226, 9-(3-aminophenethyl)-2-methyl-4-phenyl-1-oxa-4,9-diazaspiro[5.5]undecan-3-one] | < 0.1 | –
CC1OC2(CCN(CCc3ccccc3)CC2)CN(c2cccc(N)c2)C1=O (stereo not shown) [Example 227, 4-(3-aminophenyl)-2-methyl-9-phenethyl-1-oxa-4,9-diazaspiro[5.5]undecan-3-one] | > 0.5 | –
CC1OC2(CCN(CCc3ccc(N)cc3)CC2)CN(c2ccccc2)C1=O (stereo not shown) [Example 228, 9-(4-aminophenethyl)-2-methyl-4-phenyl-1-oxa-4,9-diazaspiro[5.5]undecan-3-one] | – | Ki: < 0.5 µM
CC1OC2(CCN(CCc3ccccc3N)CC2)CN(c2ccccc2)C1=O (stereo not shown) [Example 229, 9-(2-aminophenethyl)-2-methyl-4-phenyl-1-oxa-4,9-diazaspiro[5.5]undecan-3-one] | – | Ki: < 0.1 µM
CC1OC2(CCN(CCc3ccc(N)cn3)CC2)CN(c2ccccc2F)C1=O (stereo not shown) [Example 230, 9-(2-(5-aminopyridin-2-yl)ethyl)-4-(2-fluorophenyl)-2-methyl-1-oxa-4,9-diazaspiro[5.5]undecan-3-one] | – | μ and σ1 dual binding [2]: ++
Nc1cccc(CCN2CCC3(CC2)CN(c2ccccc2)C(=O)C2(CC2)O3)c1 [Example 231, 8-(3-aminophenethyl)-12-phenyl-4-oxa-8,12-diazadispiro[2.1.5.3]tridecan-13-one] | > 0.5 | –

SMILES | Ki [1] [µM] | other results
CC1OC2(CCN(CCc3ncccc3N)CC2)CN(c2ccccc2F)C1=O (stereo not shown) [Example 232, 9-(2-(3-aminopyridin-2-yl)ethyl)-4-(2-fluorophenyl)-2-methyl-1-oxa-4,9-diazaspiro[5.5]undecan-3-one] | – | μ and σ1 dual binding [2]: ++
Nc1cccc(CN2CC3(CCN(CCc4ccccc4)CC3)OCC2=O)c1 [Example 233, 4-(3-aminobenzyl)-9-phenethyl-1-oxa-4,9-diazaspiro[5.5]undecan-3-one hydrochloride] | < 0.5 | –
CC1OC2(CCN(CCc3cccnc3N)CC2)CN(c2ccccc2)C1=O (stereo not shown) [Example 234, 9-(2-(2-aminopyridin-3-yl)ethyl)-2-methyl-4-phenyl-1-oxa-4,9-diazaspiro[5.5]undecan-3-one hydrochloride] | – | Ki: < 0.5 µM
Nc1cccc(CCN2CCC3(CC2)CN(Cc2ccc(C(F)(F)F)cn2)C(=O)CO3)c1 [Example 235, 9-(3-aminophenethyl)-4-((5-(trifluoromethyl)pyridin-2-yl)methyl)-1-oxa-4,9-diazaspiro[5.5]undecan-3-one] | > 0.5 | –
CC1OC2(CCN(CCc3ccc(N)cn3)CC2)CN(c2ccccc2)C1=O (stereo not shown) [Example 236, 9-(2-(5-aminopyridin-2-yl)ethyl)-2-methyl-4-phenyl-1-oxa-4,9-diazaspiro[5.5]undecan-3-one] | > 0.5 | –
CC1OC2(CCN(CCn3ccc(N)n3)CC2)CN(c2ccccc2)C1=O (stereo not shown) [Example 237, 9-(2-(3-amino-1H-pyrazol-1-yl)ethyl)-2-methyl-4-phenyl-1-oxa-4,9-diazaspiro[5.5]undecan-3-one hydrochloride] | > 0.5 | –
CC(C)C1OC2(CCN(CCc3cccnc3N)CC2)CN(c2ccccc2F)C1=O (stereo not shown) [Example 238, 9-(2-(2-aminopyridin-3-yl)ethyl)-4-(2-fluorophenyl)-2-isopropyl-1-oxa-4,9-diazaspiro[5.5]undecan-3-one dihydrochloride] | – | Ki: < 0.1 µM
Nc1cccc(CCN2CCC3(CC2)CN(Cc2ccc(C(F)(F)F)cn2)C(=O)C2(CC2)O3)c1 [Example 239, 8-(3-aminophenethyl)-12-{[5-(trifluoromethyl)pyridin-2-yl]methyl}-4-oxa-8,12-diazadispiro[2.1.5.3]tridecan-13-one] | > 0.5 | –
CC1OC2(CCN(CCc3cccnc3N)CC2)CN(c2cnccc2C(F)(F)F)C1=O (stereo not shown) [Example 240, 9-(2-(2-aminopyridin-3-yl)ethyl)-2-methyl-4-(4-(trifluoromethyl)pyridin-3-yl)-1-oxa-4,9-diazaspiro[5.5]undecan-3-one hydrochloride] | > 0.5 | –
CC(=O)Nc1ccc(CCN2CCC3(CC2)CN(c2ccccc2)C(=O)C(C)O3)cc1.Cl (stereo not shown) [Example 241, N-(4-(2-(2-methyl-3-oxo-4-phenyl-1-oxa-4,9-diazaspiro[5.5]undecan-9-yl)ethyl)phenyl)acetamide hydrochloride] | – | μ and σ1 dual binding: ++
CC(=O)Nc1cccc(N2CC3(CCN(CCc4ccccc4)CC3)OC(C)C2=O)c1 (stereo not shown) [Example 242, N-(3-(2-methyl-3-oxo-9-phenethyl-1-oxa-4,9-diazaspiro[5.5]undecan-4-yl)phenyl)acetamide] | – | μ and σ1 dual binding: ++
CC(=O)Nc1cccc(CCN2CCC3(CC2)CN(c2ccccc2)C(=O)C(C)O3)c1 (stereo not shown) [Example 243, N-(3-(2-(2-methyl-3-oxo-4-phenyl-1-oxa-4,9-diazaspiro[5.5]undecan-9-yl)ethyl)phenyl)acetamide] | < 0.5 | –
CC(=O)Nc1cccc(CCN2CCC3(CC2)CN(c2ccccc2)C(=O)[C@H](C)O3)c1 [Example 244a, (S)-N-(3-(2-(2-methyl-3-oxo-4-phenyl-1-oxa-4,9-diazaspiro[5.5]undecan-9-yl)ethyl)phenyl)acetamide hydrochloride] | < 0.5 | –
CC(=O)Nc1cccc(CCN2CCC3(CC2)CN(c2ccccc2)C(=O)[C@@H](C)O3)c1 [Example 244b, (R)-N-(3-(2-(2-methyl-3-oxo-4-phenyl-1-oxa-4,9-diazaspiro[5.5]undecan-9-yl)ethyl)phenyl)acetamide hydrochloride] | < 0.1 | –
CC(=O)Nc1ccccc1CCN1CCC2(CC1)CN(c1ccccc1)C(=O)C(C)O2 (stereo not shown) [Example 245, N-(2-(2-(2-methyl-3-oxo-4-phenyl-1-oxa-4,9-diazaspiro[5.5]undecan-9-yl)ethyl)phenyl)acetamide] | – | μ and σ1 dual binding: ++
CC(=O)Nc1cccc(CCN2CCC3(CC2)CN(c2ccccc2)C(=O)C2(CC2)O3)c1 [Example 246, N-[3-(2-{13-oxo-12-phenyl-4-oxa-8,12-diazadispiro[2.1.5.3]tridecan-8-yl}ethyl)phenyl]acetamide] | – | Ki: < 0.5 µM
CC(C)C(=O)Nc1cccc(CCN2CCC3(CC2)CN(c2ccccc2)C(=O)C(C)O3)c1 (stereo not shown) [Example 247, N-(3-(2-(2-methyl-3-oxo-4-phenyl-1-oxa-4,9-diazaspiro[5.5]undecan-9-yl)ethyl)phenyl)isobutyramide] | – | μ and σ1 dual binding [2]: ++
CC1OC2(CCN(CCc3cccc(NC(=O)N(C)C)c3)CC2)CN(c2ccccc2)C1=O (stereo not shown) [Example 248, 1,1-dimethyl-3-(3-(2-(2-methyl-3-oxo-4-phenyl-1-oxa-4,9-diazaspiro[5.5]undecan-9-yl)ethyl)phenyl)urea] | – | μ and σ1 dual binding [2]: ++
